Data reported in PubChem BioAssay (NCI).
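Growth conditions: 96-well plates. Treatment: test compound, 48 hours, 5 concentrations. Analysis: linear interpolation between bracketing concentrations; unreached endpoints set to highest concentration. Abbreviation: GI50, concentration required for 50% inhibition of growth. TGI is the concentration that stops growth completely.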

What was measured:
Assay in all cases: DTP human tumour cell line panel, 48 h
[1] = test system: CAKI-1 renal
[2] = test system: COLO 205 colon
[3] = test system: HCC-2998 colon
[4] = test system: KM12 colon
[5] = test system: OVCAR-5 ovarian
[6] = test system: SK-MEL-28 melanoma
[7] = test system: SK-MEL-5 melanoma
[8] = test system: SNB-75 CNS
[9] = test system: NCI-H522 lung

## O=C(O)Cc1c[nH]c2ccc(F)cc12
[1]
  TGI: > 100 µM
[2]
  TGI: > 100 µM
[3]
  TGI: > 100 µM
[4]
  TGI: > 100 µM
[5]
  TGI: > 100 µM
[6]
  TGI: > 100 µM
[7]
  TGI: > 100 µM
[8]
  TGI: > 100 µM

## COc1ccc(N=Cc2cc(OC)c(OC)c(OC)c2)cc1
[1]
  GI50: > 100 µM
  TGI: > 100 µM
[4]
  TGI: > 100 µM
[9]
  GI50: > 100 µM
  TGI: > 100 µM
[5]
  TGI: > 100 µM
[6]
  TGI: > 100 µM
[7]
  TGI: > 100 µM
[8]
  TGI: > 100 µM

## OCCNCO
[1]
  TGI: > 100 µM
[2]
  TGI: > 100 µM
[4]
  TGI: > 100 µM
[9]
  TGI: > 100 µM
[5]
  TGI: > 100 µM
[6]
  TGI: > 100 µM
[7]
  TGI: > 100 µM
[8]
  TGI: > 100 µM

## C#CC(C)(C)Oc1cc(O)c2c(=O)c3ccccc3n(C)c2c1
[1]
  TGI: > 100 µM
[2]
  TGI: > 100 µM
[3]
  TGI: > 100 µM
[9]
  TGI: > 100 µM
[5]
  TGI: > 100 µM
[6]
  TGI: > 100 µM
[7]
  TGI: > 100 µM
[8]
  TGI: > 100 µM

## CCCCCCCCCCCCCCC1OC(=O)c2ccccc21 (stereo not drawn)
[4]
  TGI: > 100 µM
[5]
  TGI: > 100 µM
[6]
  TGI: > 100 µM
[8]
  TGI: > 100 µM

## CC1=CCCC(OC(N)=O)C1 (stereo not drawn)
[1]
  TGI: > 100 µM
[2]
  TGI: > 100 µM
[3]
  TGI: > 100 µM
[4]
  TGI: > 100 µM
[5]
  TGI: > 100 µM
[7]
  TGI: > 100 µM
[8]
  TGI: > 100 µM

## C/C(=N\NC(N)=S)c1ccc(C)cc1C
[1]
  TGI: > 100 µM
[2]
  TGI: > 100 µM
[3]
  TGI: > 100 µM
[4]
  TGI: > 100 µM
[5]
  TGI: 94.1 µM
[7]
  TGI: > 100 µM
[8]
  TGI: > 100 µM

## C[C@]12CCC(=O)C=C1CC[C@@H]1C2CC[C@]2(C)NC(=O)C(C#N)CC12 (stereo partly drawn)
[1]
  TGI: > 100 µM
[3]
  TGI: > 100 µM
[5]
  TGI: > 100 µM
[6]
  TGI: > 100 µM
[7]
  TGI: > 100 µM
[8]
  TGI: > 100 µM

## CC(C)(C)C1=NC(S)NC(CCC(=O)Nc2ccccc2[N+](=O)[O-])=C1 (stereo not drawn)
[1]
  TGI: > 100 µM
[2]
  TGI: > 100 µM
[3]
  TGI: > 100 µM
[4]
  TGI: > 100 µM
[5]
  TGI: > 100 µM
[6]
  TGI: > 100 µM
[7]
  TGI: > 100 µM

## CCCCn1/c(=N/C(=S)N(C)C)ss/c1=N\C(=S)N(C)C
[1]
  TGI: > 100 µM
[3]
  TGI: > 100 µM
[4]
  TGI: > 100 µM
[5]
  TGI: > 100 µM
[6]
  TGI: > 100 µM
[8]
  TGI: > 100 µM

## O=[N+]([O-])c1ccc(NSc2ccccc2)cc1
[2]
  TGI: > 100 µM
[3]
  TGI: > 100 µM
[4]
  TGI: > 100 µM
[9]
  TGI: 39.4 µM
[5]
  TGI: > 100 µM
[6]
  TGI: > 100 µM
[7]
  TGI: > 100 µM

## O=C(/C=C(\[O-])c1ccccc1)CCCCCCC(=O)/C=C(\[O-])c1ccccc1.O=C(/C=C(\[O-])c1ccccc1)CCCCCCC(=O)/C=C(\[O-])c1ccccc1.O=C(/C=C(\[O-])c1ccccc1)CCCCCCC(=O)/C=C(\[O-])c1ccccc1.[La+3].[La+3]
[1]
  GI50: > 50 µM
  TGI: > 50 µM
[2]
  GI50: > 50 µM
  TGI: > 50 µM
[3]
  GI50: > 50 µM
  TGI: > 50 µM
[9]
  GI50: > 50 µM
  TGI: > 50 µM
[5]
  GI50: > 50 µM
  TGI: > 50 µM
[6]
  GI50: > 50 µM
  TGI: > 50 µM
[7]
  GI50: > 50 µM
  TGI: > 50 µM
[8]
  GI50: 9.33 µM
  TGI: 48.2 µM

## O=c1[nH]c(=O)n(C2CC(O)C(CO)O2)cc1C#Cc1c(F)c(F)c(F)c(F)c1F (stereo not drawn)
[1]
  TGI: > 100 µM
[2]
  TGI: > 100 µM
[3]
  TGI: > 100 µM
[4]
  TGI: > 100 µM
[5]
  TGI: > 100 µM
[6]
  TGI: > 100 µM
[7]
  TGI: > 100 µM
[8]
  TGI: > 100 µM

## Cc1nc2nnc(C)n2c2c1C(=O)Nc1ccccc1N2
[2]
  TGI: > 100 µM
[3]
  TGI: > 100 µM
[4]
  TGI: > 100 µM
[9]
  TGI: > 100 µM
[6]
  TGI: > 100 µM
[8]
  TGI: > 100 µM

## COc1cc2c(cc1O)[C@H](Cc1ccc(Oc3cc(C[C@H]4c5cc(OC)c(OC)cc5CCN4C)ccc3OC)cc1)NCC2
[1]
  TGI: 19.8 µM
[2]
  TGI: 49.5 µM
[3]
  TGI: 18.7 µM
[4]
  TGI: 25.7 µM
[5]
  TGI: 35 µM
[6]
  TGI: 30.8 µM
[8]
  TGI: 21.8 µM

## COc1cc([C@@H]2c3cc4c(cc3[C@@H](NC(=O)c3cccc([N+](=O)[O-])c3)C3COC(=O)[C@@H]32)OCO4)cc(OC)c1O (stereo partly drawn)
[1]
  TGI: 4.31 µM
[2]
  TGI: > 100 µM
[3]
  TGI: 3.17 µM
[4]
  TGI: 10.8 µM
[5]
  TGI: 8.54 µM
[6]
  TGI: > 43.8 µM
[7]
  TGI: 3.65 µM
[8]
  TGI: 9.55 µM

## COc1cc2c(cc1OC)C1C=NC(C(=O)O)(C2)c2ccccc21 (stereo not drawn)
[1]
  TGI: > 100 µM
[2]
  TGI: > 100 µM
[4]
  TGI: > 100 µM
[9]
  TGI: > 100 µM
[5]
  TGI: > 100 µM
[7]
  TGI: > 100 µM
[8]
  TGI: > 100 µM

## CCOC(=O)CCCO
[3]
  TGI: > 100 µM
[4]
  TGI: > 100 µM
[9]
  TGI: > 100 µM
[5]
  TGI: > 100 µM
[6]
  TGI: > 100 µM
[7]
  TGI: > 100 µM
[8]
  TGI: > 100 µM

## OCc1c(-c2cccc3ccccc23)sc(-c2cccc3ccccc23)c1CO
[2]
  TGI: 24.9 µM
[3]
  TGI: 33.9 µM
[4]
  TGI: 26.4 µM
[9]
  TGI: 22.9 µM
[5]
  TGI: 30.9 µM
[6]
  TGI: 23.3 µM
[7]
  TGI: 23.6 µM
[8]
  TGI: 30.7 µM

## CC1CCC[P+](Cc2ccccc2)(c2ccccc2)CC1 (stereo not drawn)
[2]
  TGI: > 100 µM
[3]
  TGI: > 100 µM
[5]
  TGI: > 100 µM
[6]
  TGI: > 100 µM
[7]
  TGI: 35.9 µM
[8]
  TGI: > 100 µM

## COC(=O)C(CC(=O)c1cc2c(cc1I)OCO2)Cc1cc(OC)c(OC)c(OC)c1I (stereo not drawn)
[1]
  TGI: > 100 µM
[2]
  TGI: > 100 µM
[3]
  TGI: > 100 µM
[4]
  TGI: > 100 µM
[9]
  TGI: > 100 µM
[5]
  TGI: > 100 µM
[6]
  TGI: > 100 µM
[7]
  TGI: > 100 µM
